Data reported in patent publication US9687484B2, “Crystalline forms of an antidepressant compound” (DIPHARMA FRANCIS S.r.l., priority 2014, dated 2017).
Structures can show the parent of a compound that is named as a salt.

How the values were obtained:
[1] = Hygroscopicity of crystalline form ω under standard storage conditions; type: physicochemical
[2] = XRPD comparison of crystalline form ω fresh and after storage; type: physicochemical; settings: in the presence of moisture; FIGS. 6 and 7: 4° C. 24 hours, room temperature 24 hours, 25° C. and 60% RH 7 days
Protocol: FIG. 6: Comparison of XRPD spectra of a sample of vortioxetine hydrobromide in crystalline form ω, as defined herein, freshly prepared (top line), after the same sample of vortioxetine hydrobromide in crystalline form ω has been kept at low temperature (4° C.) for 24 hours (middle line), and after the sample has been kept at room temperature for 24 hours (bottom line).
FIG. 7: Comparison of XRPD spectra of a sample of vortioxetine hydrobromide in crystalline form ω, as defined herein, freshly prepared (bottom line), and the same sample analysed after 7 days, kept at a temperature of 25° C. and 60% relative humidity (RH) (top line).
Crystalline form ω of vortioxetine hydrobromide was characterised by X-ray powder diffraction (XRPD). The X-ray powder diffraction (XRPD) spectra shown in FIGS. 3, 6 and 7 were collected with a PANalytical X'Pert PRO automatic powder diffractometer under the following operating conditions: CuKα radiation (λ=1.54 Å), scanning with a 2θ angle range of 3-40° with a step size of 0.017° for 12.7 sec.

[3] = Physical and chemical stability of crystalline form ω under standard conditions; type: physicochemical; settings: standard pressure, temperature and humidity conditions; FIGS. 6 and 7
[4] = as said in WO 2014/044721; cited from earlier work
[5] = greater relative humidity than the standard conditions; as described in WO 2007/144005, acknowledged by WO2014/044721; cited from earlier work

Compound: Cc1ccc(Sc2ccccc2N2CCNCC2)c(C)c1 [crystalline form ω, hydrobromide salt of 1-[2-(2,4-dimethylphenylsulphanyl)phenyl]piperazine]
- hygroscopicity [1]: not hygroscopic
- retention of crystalline form (XRPD) [2]: keeps its crystalline form
- physical and chemical stability [3]: stable from both the physical and the chemical standpoint

Compound: Cc1ccc(Sc2ccccc2N2CCNCC2)c(C)c1 [delta crystalline form, vortioxetine hydrobromide]
- solubility in water [4]: high solubility in water

Compound: Cc1ccc(Sc2ccccc2N2CCNCC2)c(C)c1 [gamma, vortioxetine hydrobromide]
- hygroscopicity (tendency to absorb water) [5]: significant hygroscopicity
